The values that follow come from patent US8349872B2, “Tripyridyl carboxamide orexin receptor antagonists” (Merck Sharp & Dohme Corp., priority 2008, dated 2013).

For the assay, the target named is T1, OX2 receptor (Homo sapiens, UniProt O43614).
T1 construct: expressed in transfected cells; host or cells: CHO cells (membranes)
T1 sequence (O43614 1-444): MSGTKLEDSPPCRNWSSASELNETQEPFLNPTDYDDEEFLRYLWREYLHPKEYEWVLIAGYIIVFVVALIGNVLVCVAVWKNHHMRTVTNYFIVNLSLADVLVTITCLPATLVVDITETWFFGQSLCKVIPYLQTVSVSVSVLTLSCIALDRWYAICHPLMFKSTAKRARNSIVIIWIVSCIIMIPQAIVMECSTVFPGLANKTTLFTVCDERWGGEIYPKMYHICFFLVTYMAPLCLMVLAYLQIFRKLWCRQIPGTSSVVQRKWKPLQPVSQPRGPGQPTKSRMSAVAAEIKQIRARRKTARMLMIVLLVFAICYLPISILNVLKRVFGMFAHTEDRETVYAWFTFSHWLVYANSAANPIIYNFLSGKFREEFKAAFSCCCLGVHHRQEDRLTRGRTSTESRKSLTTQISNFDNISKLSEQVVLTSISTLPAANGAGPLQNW
In words: radioligand binding assay, OX2 receptor. The following applies: membranes prepared from CHO cells expressing the OX2 receptor; read-out: OX2R Ki. As for the experimental part: The utility of the compounds in accordance with the present invention as orexin receptor OX1R and/or OX2R antagonists may be readily determined without undue experimentation by methodology well known in the art, including the “FLIPR Ca^2+ Flux Assay” (Okumura et al., Biochem. Biophys. Res. Comm. 280:976-981, 2001). In a typical experiment the OX1 and OX2 receptor antagonistic activity of the compounds of the present invention was determined in accordance with the following experimental method. For intracellular calcium measurements, Chinese hamster ovary (CHO) cells expressing the rat orexin-1 receptor or the human orexin-2 receptor, are grown in Iscove's modified DMEM containing 2 mM L-glutamine, […], 1% hypoxanthine-thymidine supplement, 100 U/ml penicillin, 100 ug/ml streptomycin and 10% heat-inactivated fetal calf serum (FCS). The cells are seeded at 20,000 cells/well into Becton-Dickinson black 384-well clear bottom sterile plates coated with poly-D-lysine. All reagents were from GIBCO-Invitrogen Corp. The seeded plates are incubated overnight at 37° C. and 5% CO2. Ala-6,12 human orexin-A as the agonist is prepared as a 1 mM stock solution in 1% bovine serum albumin (BSA) and diluted in assay buffer (HBSS containing 20 mM HEPES, 0.1% BSA and 2.5 mM probenecid, pH 7.4) for use in the assay at a final concentration of 70 pM. Test compounds are prepared as 10 mM stock solution in DMSO, then diluted in 384-well plates, first in DMSO, then assay buffer. On the day of the assay, cells are washed 3 times with 100 ul assay buffer and then incubated for 60 min (37° C., 5% CO2) in 60 ul assay buffer containing 1 uM Fluo-4AM ester, 0.02% pluronic acid, and 1% BSA. The dye loading solution is then aspirated and cells are washed 3 times with 100 ul assay buffer. 30 ul of that same buffer is left in each well. Within the Fluorescent Imaging Plate Reader (FLIPR, Molecular Devices), test compounds are added to the plate in a volume of 25 ul, incubated for 5 min and finally 25 ul of agonist is added. Fluorescence is measured for each well at 1 second intervals for 5 minutes and the height of each fluorescence peak is compared to the height of the fluorescence peak induced by 70 pM Ala-6,12 orexin-A with buffer in place of antagonist. For each antagonist, IC50 value (the concentration of compound needed to inhibit 50% of the agonist response) is determined. Alternatively, compound potency can be assessed by a radioligand binding assay (described in Bergman et. al. Bioorg. Med. Chem. Lett. 2008, 18, 1425-1430) in which the inhibition constant (Ki) is determined in membranes prepared from CHO cells expressing either the OX1 or OX2 receptor. The intrinsic orexin receptor antagonist activity of a compound which may be used in the present invention may be determined by these assays.
The Ki is the equilibrium dissociation constant of an inhibitor or competing ligand from its target. On to `COc1ccc(CNC(=O)c2cc(-c3cc(C)cnc3F)cnc2-c2ccccn2)cc1Cl` [11-5, N-(3-chloro-4-methoxybenzyl)-2″-fluoro-5″- methyl-2,2′: 5′,3 ″-terpyridine-3′-carboxamide], for which the Ki amounted to 1.3 nM.
For `COc1ccc(CNC(=O)c2cc(-c3cncc(C)c3)cnc2-c2ccccn2)nc1OC` [12-6, N-[(5,6-dimethoxypyridin-2-yl)methyl]-5″-methyl-2,2′:5′,3″-terpyridine-3′-carboxamide] the value was 0.46 nM.
The value for `COc1ccc(CNC(=O)c2cc(-c3cncc(C#N)c3)cnc2-c2ccccn2)nc1OC` [12-14, 5″-cyano-N-[(5,6-dimethoxypyridin-2-yl)methyl]-2,2′:5′,3″- terpyridine-3′-carboxamide] was 12 nM; that for `COc1ccc(CNC(=O)c2cc(-c3cncc(Cl)c3)cnc2-c2ccccn2)nc1OC` [12-5, 5″-chloro-N-[(5,6-dimethoxypyridin-2-yl)methyl]-2,2′:5′,3″-terpyridine-3′-carboxamide] was 0.54 nM; that for “N-(4-ethyl-3- methoxybenzyl)-5″- methyl-2,2′:5′,3″- terpyridine-3′- carboxamide [12-17]” was 1.2 nM.
